Paper PMC6172315, “Relative Selectivity of Plant Cardenolides for Na^+/K^+-ATPases From the Monarch Butterfly and Non-resistant Insects” (Frontiers in Plant Science, 2018)
Entries after “also recorded” stand apart in the source; their conditions may differ. Read-outs that look alike come from different tables or passages of the source.

Legend:
[1] = biological target: D. plexippus-Na^+/K^+-ATPase (Danaus plexippus, UniProt K0G7C4); assay: In vitro inhibition assay of D. plexippus Na+/K+-ATPase (phosphate release); format: biochemical; conditions: for inhibition of D. plexippus Na^+/K^+-ATPase compared to ouabain: DP, F-test comparison of entire dose-response curves with ouabain; for IC50: read-out: IC50 D. plexippus- Na^+/K^+-ATPase, Na+/K+-ATPase extracted from butterfly brains; for fold difference between IC50 values, non-adapted (E. core/S. gregaria) vs adapted (D. plexippus) insect Na^+/K^+-ATPase: Figure 2, last number, S. gregaria values used for ouabain and digitoxigenin
Sequence of D. plexippus-Na^+/K^+-ATPase (K0G7C4 1-1009): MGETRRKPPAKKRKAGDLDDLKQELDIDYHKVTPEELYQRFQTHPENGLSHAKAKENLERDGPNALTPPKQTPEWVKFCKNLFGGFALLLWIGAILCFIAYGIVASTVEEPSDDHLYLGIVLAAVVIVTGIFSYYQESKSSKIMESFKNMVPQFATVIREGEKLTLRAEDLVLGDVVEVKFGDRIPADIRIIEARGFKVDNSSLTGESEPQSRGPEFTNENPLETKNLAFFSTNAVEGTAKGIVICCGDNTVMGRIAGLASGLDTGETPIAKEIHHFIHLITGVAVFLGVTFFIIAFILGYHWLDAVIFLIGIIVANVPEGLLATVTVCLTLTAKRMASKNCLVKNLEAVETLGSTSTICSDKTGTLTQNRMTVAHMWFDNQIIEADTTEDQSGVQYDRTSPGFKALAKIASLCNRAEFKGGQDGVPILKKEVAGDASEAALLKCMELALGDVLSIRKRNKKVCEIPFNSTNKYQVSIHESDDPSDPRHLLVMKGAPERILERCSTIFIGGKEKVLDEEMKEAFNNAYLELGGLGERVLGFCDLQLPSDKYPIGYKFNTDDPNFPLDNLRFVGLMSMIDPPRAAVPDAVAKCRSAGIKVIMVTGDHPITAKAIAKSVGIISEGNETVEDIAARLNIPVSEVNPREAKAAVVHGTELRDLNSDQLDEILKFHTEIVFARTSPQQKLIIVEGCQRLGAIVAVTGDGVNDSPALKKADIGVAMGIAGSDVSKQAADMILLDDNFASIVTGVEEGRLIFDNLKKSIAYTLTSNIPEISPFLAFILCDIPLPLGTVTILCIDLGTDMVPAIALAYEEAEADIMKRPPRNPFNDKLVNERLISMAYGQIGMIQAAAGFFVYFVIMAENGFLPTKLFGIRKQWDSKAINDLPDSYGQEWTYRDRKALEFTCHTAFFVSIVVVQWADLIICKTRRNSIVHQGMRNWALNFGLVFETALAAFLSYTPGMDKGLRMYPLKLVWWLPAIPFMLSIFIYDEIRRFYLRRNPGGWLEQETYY
Description: (§1) Danaus plexippus was caught in the field or purchased; E. core and S. gregaria were obtained commercially, with additional E. core from a laboratory colony. […] Briefly, brains dissected from butterflies stored at -80°C or recta from locusts were homogenized (individually or pooled) with an all glass grinder (Wheaton) in deionized water, frozen at -80°C, freeze-dried, and stored frozen until use. For in vitro assays, lyophilisates were dissolved in water, sonicated in an ultrasonic bath, and centrifuged to remove undissolved matter. All cardiac glycosides were tested at least with three biological replicates of Na^+/K^+-ATPase (i.e., Na^+/K^+-ATPase from genetically different specimens or pools of specimens).
(§2) Means of duplicate determinations (i.e., technical replicates) were used as data points. In consequence, each data point of a dose–response curve is the mean of at least three biological replicates based on two technical replicates, each. […] Here, technical replicates collected on the same 96-well plate were averaged and used as data points.
(§3) Stock solutions of cardiac glycosides, as well as pregnane glycosides, were prepared from crystalline compounds in DMSO. While concentrations of all other compounds were based on mass, calactin, and calotropin stock solutions were adjusted with HPLC using digitoxin as a reference.
(§4) Pairwise statistical comparisons of dose-response curves were carried out using the “compare datasets” option in OriginPro, which is based on an F-Test evaluating if the two curves are identical. Correlation analyses using log10-transformed IC50 values was also carried out with OriginPro. […] To analyze relative selectivity without a reference, we also plotted the fold differences between the IC50 values of individual cardenolides for non-adapted and adapted insect Na^+/K^+-ATPase and compared them to mammalian (lamb) Na^+/K^+-ATPase (Figure 2).

E. core-Na^+/K^+-ATPase = E. core-Na^+/K^+-ATPase (Euploea core, UniProt A0A5C0C9F5); assay: In vitro inhibition assay of E. core Na+/K+-ATPase (phosphate release); format: biochemical; conditions: for inhibition of E. core Na^+/K^+-ATPase compared to ouabain: EC, F-test comparison of entire dose-response curves with ouabain; for IC50: read-out: IC50 E. core- Na^+/K^+-ATPase, Na+/K+-ATPase extracted from butterfly brains
Sequence of E. core-Na^+/K^+-ATPase (A0A5C0C9F5 1-1013): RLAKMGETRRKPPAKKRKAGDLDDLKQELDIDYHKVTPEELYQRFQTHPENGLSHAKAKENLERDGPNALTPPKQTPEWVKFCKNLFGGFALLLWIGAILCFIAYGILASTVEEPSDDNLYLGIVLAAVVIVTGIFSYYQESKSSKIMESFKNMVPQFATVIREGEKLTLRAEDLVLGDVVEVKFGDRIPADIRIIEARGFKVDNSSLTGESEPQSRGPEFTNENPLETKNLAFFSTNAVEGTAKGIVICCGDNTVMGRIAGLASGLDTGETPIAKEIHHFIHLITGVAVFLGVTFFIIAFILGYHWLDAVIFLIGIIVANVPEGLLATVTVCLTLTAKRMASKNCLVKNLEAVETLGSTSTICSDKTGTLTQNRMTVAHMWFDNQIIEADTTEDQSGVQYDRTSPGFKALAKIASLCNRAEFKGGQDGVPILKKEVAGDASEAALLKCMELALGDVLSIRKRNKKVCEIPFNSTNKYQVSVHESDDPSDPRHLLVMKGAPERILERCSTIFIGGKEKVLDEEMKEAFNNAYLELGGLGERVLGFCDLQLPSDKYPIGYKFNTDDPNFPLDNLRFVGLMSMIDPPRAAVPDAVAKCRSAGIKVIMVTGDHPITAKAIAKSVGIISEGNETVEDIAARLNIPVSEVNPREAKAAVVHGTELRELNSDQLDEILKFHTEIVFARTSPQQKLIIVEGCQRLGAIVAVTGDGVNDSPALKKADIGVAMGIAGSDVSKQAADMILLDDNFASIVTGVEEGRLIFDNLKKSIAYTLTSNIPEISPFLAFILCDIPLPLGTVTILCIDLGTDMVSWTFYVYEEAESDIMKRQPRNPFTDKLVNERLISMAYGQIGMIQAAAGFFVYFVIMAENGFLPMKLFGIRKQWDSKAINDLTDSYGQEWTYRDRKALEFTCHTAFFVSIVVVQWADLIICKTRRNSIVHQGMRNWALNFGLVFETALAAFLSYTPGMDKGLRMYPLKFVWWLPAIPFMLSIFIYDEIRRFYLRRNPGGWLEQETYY
Description: as §1, §2, §3, §4

[2] = biological target: S. gregaria-Na^+/K^+-ATPase (Schistocerca gregaria, UniProt A0A8E5JSN5); format: biochemical
Sequence of S. gregaria-Na^+/K^+-ATPase (A0A8E5JSN5 1-1039): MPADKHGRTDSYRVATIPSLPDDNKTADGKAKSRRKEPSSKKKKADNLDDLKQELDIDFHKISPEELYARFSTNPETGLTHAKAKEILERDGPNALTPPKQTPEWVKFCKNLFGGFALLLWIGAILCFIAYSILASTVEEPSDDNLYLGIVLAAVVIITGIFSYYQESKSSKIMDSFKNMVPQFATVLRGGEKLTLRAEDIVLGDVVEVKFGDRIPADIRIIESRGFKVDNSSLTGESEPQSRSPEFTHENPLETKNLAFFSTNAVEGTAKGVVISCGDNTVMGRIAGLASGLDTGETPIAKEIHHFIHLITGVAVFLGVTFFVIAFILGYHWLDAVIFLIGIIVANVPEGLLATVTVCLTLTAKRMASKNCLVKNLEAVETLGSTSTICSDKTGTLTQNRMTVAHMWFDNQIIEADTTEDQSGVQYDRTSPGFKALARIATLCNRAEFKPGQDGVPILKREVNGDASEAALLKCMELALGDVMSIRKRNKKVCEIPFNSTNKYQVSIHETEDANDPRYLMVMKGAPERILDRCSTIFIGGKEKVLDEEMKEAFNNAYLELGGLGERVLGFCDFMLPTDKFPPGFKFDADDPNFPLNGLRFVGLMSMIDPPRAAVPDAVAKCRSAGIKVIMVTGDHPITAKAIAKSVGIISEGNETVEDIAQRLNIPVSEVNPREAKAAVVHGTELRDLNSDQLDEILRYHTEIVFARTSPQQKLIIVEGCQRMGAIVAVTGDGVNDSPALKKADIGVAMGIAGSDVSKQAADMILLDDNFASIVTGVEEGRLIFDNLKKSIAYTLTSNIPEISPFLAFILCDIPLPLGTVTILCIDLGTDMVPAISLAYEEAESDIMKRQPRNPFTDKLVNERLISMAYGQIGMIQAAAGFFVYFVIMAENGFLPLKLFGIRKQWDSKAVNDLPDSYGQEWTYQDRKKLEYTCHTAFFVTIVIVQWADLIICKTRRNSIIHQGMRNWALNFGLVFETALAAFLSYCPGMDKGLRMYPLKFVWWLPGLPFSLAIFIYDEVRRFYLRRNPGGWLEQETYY
Description: as §1, §2, §3, §4

lamb Na^+/K^+-ATPase = assay: Fold differences of IC50 between lamb and insect Na+/K+-ATPases; format: biochemical; conditions: lamb IC50 inferred from ref Paula et al., 2005; for fold difference between IC50 values, lamb vs adapted insect (D. plexippus) Na^+/K^+-ATPase: Figure 2, first number; for fold difference between IC50 values, lamb vs non-adapted insect (E. core/S. gregaria) Na^+/K^+-ATPase: Figure 2, second number
Description: as §4

porcine Na^+/K^+-ATPase = assay: In vitro inhibition assay of porcine Na+/K+-ATPase; format: biochemical, pig
Description: Lyophilized Na^+/K^+-ATPase was dissolved in water to a concentration of 1 U/ml, stored at -80°C in single-use aliquots and diluted with H2O to 0.05 U/ml for use in the in vitro assay (final concentration in the assay 0.01 U/ml).
as §4

[3] = Na+/K+-ATPase extracted from locust recta; read-out: IC50 S. gregaria- Na^+/K^+-ATPase
[4] = SG; F-test comparison of entire dose-response curves with ouabain
[5] = read-out: IC50 S. gregaria- Na^+/K^+-ATPase; Na+/K+-ATPase extracted from locust recta

## C[C@]12CC[C@H]3[C@@H](CC[C@]4(O)C[C@@H](O)CC[C@]34C=O)[C@@]1(O)CC[C@@H]2C1=CC(=O)OC1 [strophanthidin]
[1]
  inhibition of D. plexippus Na^+/K^+-ATPase compared to ouabain: > ouabain; F2,6 = 9.41, p = 0.01
  IC50: 64.8 µM

## C[C@@H]1C[C@H](O)[C@]2(O)O[C@@H]3C[C@@]4(C=O)[C@@H](CC[C@@H]5[C@@H]4CC[C@]4(C)[C@@H](C6=CC(=O)OC6)CC[C@]54O)C[C@H]3O[C@@H]2O1 [calotropin]
E. core-Na^+/K^+-ATPase
  inhibition of E. core Na^+/K^+-ATPase compared to ouabain: > ouabain; F2,7 = 54.31, p < 0.001
  IC50: 0.323 µM
[1]
  inhibition of D. plexippus Na^+/K^+-ATPase compared to ouabain: > ouabain; F2,7 = 154.4, p < 0.001
  fold difference between IC50 values, non-adapted (E. core/S. gregaria) vs adapted (D. plexippus) insect Na^+/K^+-ATPase: 17 x
  IC50: 5.36 µM

## C[C@@H]1O[C@@H](O[C@H]2CC[C@]3(C=O)[C@H]4CC[C@]5(C)[C@@H](c6ccc(=O)oc6)CC[C@]5(O)[C@@H]4CC[C@]3(O)C2)[C@H](O)[C@H](O)[C@H]1O[C@@H]1O[C@H](CO)[C@@H](O)[C@H](O)[C@H]1O [hellebrin]
[1]
  inhibition of D. plexippus Na^+/K^+-ATPase compared to ouabain: > ouabain; F2,6 = 1420.98, p < 0.001
  IC50: 0.842 µM

## CO[C@H]1C[C@H](O[C@H]2CC[C@]3(C=O)[C@H]4CC[C@]5(C)[C@@H](C6=CC(=O)OC6)CC[C@]5(O)[C@@H]4CC[C@]3(O)C2)O[C@H](C)[C@H]1O [cymarin]
[2]; [3]
  IC50: 0.334 µM
[2]; [4]
  inhibition of S. gregaria Na^+/K^+-ATPase compared to ouabain: > ouabain; F2,6 = 6.37, p = 0.03
[1]
  inhibition of D. plexippus Na^+/K^+-ATPase compared to ouabain: > ouabain; F2,6 = 514.53, p < 0.001
  fold difference between IC50 values, non-adapted (E. core/S. gregaria) vs adapted (D. plexippus) insect Na^+/K^+-ATPase: 21 x
  IC50: 6.99 µM
[1]; cymarin vs strophanthidin
  inhibition by glycoside relative to corresponding genin (strophanthidin) on D. plexippus-Na^+/K^+-ATPase: ninefold
Lamb Na^+/K^+-ATPase
  fold difference between IC50 values, lamb vs adapted insect (D. plexippus) Na^+/K^+-ATPase: 36 x
  fold difference between IC50 values, lamb vs non-adapted insect (E. core/S. gregaria) Na^+/K^+-ATPase: 2 x

## CC12CC(O)C3C(CCC4(O)CC(O)CC(O)C34CO)C1(O)CCC2C1=CC(=O)OC1 (stereo not drawn) [ouabagenin]
[2]; [3]
  IC50: 20.4 µM
[2]; [4]
  inhibition of S. gregaria Na^+/K^+-ATPase compared to ouabain: < ouabain; F2,6 = 201.2, p < 0.001
[1]
  inhibition of D. plexippus Na^+/K^+-ATPase compared to ouabain: < ouabain; F2,6 = 80.0, p < 0.001
  fold difference between IC50 values, non-adapted (E. core/S. gregaria) vs adapted (D. plexippus) insect Na^+/K^+-ATPase: 41 x
  IC50: 841 µM
Lamb Na^+/K^+-ATPase
  fold difference between IC50 values, lamb vs adapted insect (D. plexippus) Na^+/K^+-ATPase: 1821 x
  fold difference between IC50 values, lamb vs non-adapted insect (E. core/S. gregaria) Na^+/K^+-ATPase: 44 x

## C[C@]12CC[C@H](O[C@@H]3O[C@H](CO)[C@@H](O)[C@H](O)[C@H]3O)C[C@@H]1CC[C@@H]1[C@@H]2CC[C@]2(C)[C@@H](C3=CC(=O)OC3)CC[C@]12O [desglucouzarin]
E. core-Na^+/K^+-ATPase
  inhibition of E. core Na^+/K^+-ATPase compared to ouabain: nearly the same inhibitory effect as ouabain
  IC50: 0.62 µM
[1]
  inhibition of D. plexippus Na^+/K^+-ATPase compared to ouabain: strongly inhibitory effect; also recorded: > ouabain; F2,7 = 455.90, p < 0.001
  fold difference between IC50 values, non-adapted (E. core/S. gregaria) vs adapted (D. plexippus) insect Na^+/K^+-ATPase: 10 x
  IC50: 6.42 µM
Porcine Na^+/K^+-ATPase; F-test comparison of dose-response curves with ouabain
  inhibition of porcine Na^+/K^+-ATPase compared to ouabain: more strongly than ouabain
Porcine Na^+/K^+-ATPase; purified from pig brain, 0.01 U/ml in the assay
  IC50: 0.268 µM

## C[C@@H]1C[C@@H](O)[C@]2(O)O[C@@H]3C[C@@]4(C=O)[C@@H](CC[C@@H]5[C@@H]4CC[C@]4(C)[C@@H](C6=CC(=O)OC6)CC[C@]54O)C[C@H]3O[C@@H]2O1 [calactin]
E. core-Na^+/K^+-ATPase
  inhibition of E. core Na^+/K^+-ATPase compared to ouabain: more potently than ouabain; also recorded: > ouabain; F2,7 = 496.50, p < 0.001
  IC50: 0.092 µM
[1]
  inhibition of D. plexippus Na^+/K^+-ATPase compared to ouabain: more potently than ouabain; also recorded: > ouabain; F2,7 = 4706.35, p < 0.001
  fold difference between IC50 values, non-adapted (E. core/S. gregaria) vs adapted (D. plexippus) insect Na^+/K^+-ATPase: 23 x
  IC50: 2.15 µM

## C[C@H]1O[C@@H](O[C@H]2[C@@H](O)C[C@H](O[C@H]3[C@@H](O)C[C@H](O[C@H]4CC[C@@]5(C)[C@H](CC[C@@H]6[C@@H]5CC[C@]5(C)[C@@H](C7=CC(=O)OC7)CC[C@]65O)C4)O[C@@H]3C)O[C@@H]2C)C[C@H](O)[C@@H]1O [digitoxin, reference compound]
[2]; [4]
  inhibition of S. gregaria Na^+/K^+-ATPase compared to ouabain: = ouabain; F2,6 = 5.07, p = 0.05
[2]; [5]
  IC50: 1.37 µM
[1]
  inhibition of D. plexippus Na^+/K^+-ATPase compared to ouabain: > ouabain; F2,6 = 116.84, p < 0.001
  IC50: 14.8 µM

## C[C@]12CC[C@H](O)C[C@H]1CC[C@@H]1[C@@H]2C[C@@H](O)[C@]2(C)[C@@H](C3=CC(=O)OC3)CC[C@]12O [digoxigenin]
[2]; [4]
  inhibition of S. gregaria Na^+/K^+-ATPase compared to ouabain: < ouabain; F2,6 = 151.91, p < 0.001
[2]; [5]
  IC50: 11.8 µM
[1]
  inhibition of D. plexippus Na^+/K^+-ATPase compared to ouabain: < ouabain; F2,6 = 30.1, p < 0.001
  IC50: 379 µM

## CC(=O)O[C@H]1C[C@H](O[C@H]2[C@@H](O)C[C@H](O[C@H]3[C@@H](O)C[C@H](O[C@H]4CC[C@@]5(C)[C@H](CC[C@@H]6[C@@H]5C[C@@H](O)[C@]5(C)[C@@H](C7=CC(=O)OC7)CC[C@]65O)C4)O[C@@H]3C)O[C@@H]2C)O[C@H](C)[C@H]1O[C@@H]1O[C@H](CO)[C@@H](O)[C@H](O)[C@H]1O [lanatoside C, reference compound]
[2]; [3]
  IC50: 12.4 µM
[2]; [4]
  inhibition of S. gregaria Na^+/K^+-ATPase compared to ouabain: < ouabain; F2,6 = 82.96, p < 0.001
[1]
  inhibition of D. plexippus Na^+/K^+-ATPase compared to ouabain: < ouabain; F2,6 = 17.23, p = 0.003
  fold difference between IC50 values, non-adapted (E. core/S. gregaria) vs adapted (D. plexippus) insect Na^+/K^+-ATPase: 52 x
  IC50: 644 µM
Lamb Na^+/K^+-ATPase
  fold difference between IC50 values, lamb vs adapted insect (D. plexippus) Na^+/K^+-ATPase: 1564 x
  fold difference between IC50 values, lamb vs non-adapted insect (E. core/S. gregaria) Na^+/K^+-ATPase: 30 x

## C[C@]12CC[C@H](O)C[C@H]1CC[C@@H]1[C@@H]2CC[C@]2(C)[C@@H](C3=CC(=O)OC3)[C@@H](O)C[C@]12O [gitoxigenin]
[2]; [3]
  IC50: 37.8 µM
[2]; [4]
  inhibition of S. gregaria Na^+/K^+-ATPase compared to ouabain: much lower extent compared to ouabain
[1]
  fold difference between IC50 values, non-adapted (E. core/S. gregaria) vs adapted (D. plexippus) insect Na^+/K^+-ATPase: 7 x
  IC50: 256 µM
Lamb Na^+/K^+-ATPase
  fold difference between IC50 values, lamb vs adapted insect (D. plexippus) Na^+/K^+-ATPase: 1633 x
  fold difference between IC50 values, lamb vs non-adapted insect (E. core/S. gregaria) Na^+/K^+-ATPase: 241 x

## C[C@]12CC[C@H](O)C[C@H]1CC[C@@H]1[C@@H]2CC[C@]2(C)[C@@H](C3=CC(=O)OC3)CC[C@]12O [digitoxigenin]
[2]; [4]
  inhibition of S. gregaria Na^+/K^+-ATPase compared to ouabain: < ouabain; F2,6 = 17.5, p = 0.003
[2]; [5]
  IC50: 2.73 µM
E. core-Na^+/K^+-ATPase
  inhibition of E. core Na^+/K^+-ATPase compared to ouabain: < ouabain; F2,6 = 180.27, p < 0.001
  IC50: 4.12 µM
[1]
  inhibition of D. plexippus Na^+/K^+-ATPase compared to ouabain: > ouabain; F2,6 = 54.05, p < 0.001
  IC50: 24.8 µM
